We go through 32 compounds from patent US7939534B2, “Certain chemical entities, compositions, and methods” (Cytokinetics, Inc., priority 2006, dated 2011).

pIC50: −log10 of the molar value. Values joined by “and” are separate entries in the source; they are usually repeats but may differ in a detail not shown here. Equal entries are not always repeated.

The target of the test is T1, chicken gizzard smooth muscle myosin subfragment-1 chemically crosslinked to either cardiac or skeletal actin (Gallus gallus, UniProt P10587).
T1 construct: chicken gizzard smooth muscle myosin subfragment-1; from tissue; host or cells: chicken gizzard
Kind of test: Dose dependent smooth muscle myosin ATPase modulation (pyruvate kinase/horseradish peroxidase/pyruvate oxidase-coupled ATPase assay). The test is classed as biochemical. Conditions: read-out: IC50 Arithmetic Mean. In outline:
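Chicken gizzard smooth muscle myosin S1 crosslinked (EDC/NHS) to cardiac or skeletal actin, concentration titrated to a set ATPase rate. Pyruvate kinase/pyruvate oxidase/HRP-coupled assay, 0.15 mM ATP, 12 mM K-PIPES pH 7.00, 100 mM KCl, amplex red fluorescence; IC50 from 4-parameter fit.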

On to `CC(C)(C)OC(=O)NCCCN1C(=O)CC[C@@H]1CNC(=O)c1cc(F)c(N2CCCC2)nc1NCCc1cccc(F)c1` [Compound 68, N-[((2R)-1-{3-[(tert-butoxy)carbonylamino]propyl}-5-oxopyrrolidin-2-yl)methyl](5-fluoro-2-{[2-(3-fluorophenyl)ethyl]amino}-6-pyrrolidinyl(3-pyridyl))carboxamide], for which the pIC50 was 5.48. To `NCC1CCN(c2ccc(C(=O)NCc3cccnc3)c(NCCc3cccc(F)c3)n2)CC1` [Compound 105, (6-[4-(aminomethyl)piperidyl]-2-{[2-(3-fluorophenyl)ethyl]amino}(3-pyridyl))-N-(3-pyridylmethyl)carboxamide] belongs 4.41; to `NCc1cccc(CNC(=O)c2ccc(N3CC[C@H](O)C3)nc2NCCc2cccc(F)c2)n1` [Compound 102, (6-((3S)-3-hydroxypyrrolidinyl)-2-{[2-(3-fluorophenyl)ethyl]amino}(3-pyridyl))-N-{[6-(aminomethyl)(2-pyridyl)]methyl}carboxamide], 5.51; to `O=C(NCc1cccnc1)c1ccc(N2CCCC2)nc1NCCc1ccccn1` [Compound 33, {2-[(2-(2-pyridyl)ethyl)amino]-6-pyrrolidinyl(3-pyridyl)}-N-(3-pyridylmethyl)carboxamide], 4.48.

For the compound `NC(=O)CNC(=O)c1ccc(N2CC[C@@H](O)C2)nc1NCCc1cccc(F)c1` [Compound 2, (6-((3R)-3-hydroxypyrrolidinyl)-2-{[2-(3-fluorophenyl)ethyl]amino}(3-pyridyl))-N-(carbamoylmethyl)carboxamide], the negative logarithm of the IC50 (pIC50) is 4.94.

As to `CN(C)C(=O)N1CCN(c2ccc(C(=O)NCc3cccnc3)c(NCCc3cccc(F)c3)n2)CC1` [Compound 84, [4-(6-{[2-(3-fluorophenyl)ethyl]amino}-5-[N-(3-pyridylmethyl)carbamoyl](2-pyridyl))piperazinyl]-N,N-dimethylcarboxamide], the pIC50 is 4.31. With `O=C(NCc1cccnc1)c1ccc(N2CCC(C(F)(F)F)C2)nc1NCCc1cccc(F)c1` (centres unmarked) [Compound 99, (2-{[2-(3-fluorophenyl)ethyl]amino}-6-[3-(trifluoromethyl)pyrrolidinyl](3-pyridyl))-N-(3-pyridylmethyl)carboxamide], the pIC50 is 5.60. The figure for `O=C(NCc1cccnc1)c1ccc(N2CC[C@@H](F)C2)nc1NCCc1cccc(F)c1` [Compound 104, (6-((3R)-3-fluoropyrrolidinyl)-2-{[2-(3-fluorophenyl)ethyl]amino}(3-pyridyl))-N-(3-pyridylmethyl)carboxamide] is 6.97; for `NCc1cccc(CNC(=O)c2ccc(N3CCCCC3)nc2NCCc2cccc(F)c2)n1` [Compound 101, N-{[6-(aminomethyl)(2-pyridyl)]methyl}(2-{[2-(3-fluorophenyl)ethyl]amino}-6-piperidyl(3-pyridyl))carboxamide] it is 6.48.

`O=C(NCc1cccnc1)c1ccc(N2CCC(N3CCCCC3)CC2)nc1NCCc1cccc(F)c1` [Compound 124, (2-{[2-(3-fluorophenyl)ethyl]amino}-6-(4-piperidylpiperidyl)(3-pyridyl))-N-(3-pyridylmethyl)carboxamide]: the pIC50 is 4.53.

Take `NCc1ncccc1CNC(=O)c1ccc(N2CC[C@@H](F)C2)nc1NCCc1cccc(F)c1` [Compound 39, (6-((3R)-3-fluoropyrrolidinyl)-2-{[2-(3-fluorophenyl)ethyl]amino}(3-pyridyl))-N-{[2-(aminomethyl)(3-pyridyl)]methyl}carboxamide]: the pIC50 was 7.50. Consider `O=C(NCc1cccnc1)c1ccc(N2CCOCC2)nc1NCCc1cccc(F)c1` [Compound 87, (2-{[2-(3-fluorophenyl)ethyl]amino}-6-morpholin-4-yl(3-pyridyl))-N-(3-pyridylmethyl)carboxamide], for which the pIC50 was 5.57.

For the compound `O=C(NCc1cccnc1)c1ccc(N2CCC(O)CC2)nc1NCCc1cccc(F)c1` [Compound 115, (2-{[2-(3-fluorophenyl)ethyl]amino}-6-(4-hydroxypiperidyl)(3-pyridyl))-N-(3-pyridylmethyl)carboxamide], the negative logarithm of the IC50 (pIC50) is 6.12. On to `NCc1ncccc1CNC(=O)c1ccc(N2CCCCC2)nc1NCCc1cccc(F)c1` [Compound 40, N-{[2-(aminomethyl)(3-pyridyl)]methyl}(2-{[2-(3-fluorophenyl)ethyl]amino}-6-piperidyl(3-pyridyl))carboxamide], for which the pIC50 was 7.18.

In the case of “N-[((2R)-1-{4-[(tert-butoxy)carbonylamino]butanoyl}pyrrolidin-2-yl)methyl](5-fluoro-2-{[2-(3-fluorophenyl)ethyl]amino}-6-pyrrolidinyl(3-pyridyl))carboxamide [Compound 75]”, the pIC50 is 5.07. As to `O=C(NCc1cccnc1)c1ccc(N2CCCC2=O)nc1NCCc1cccc(F)c1` [Compound 15, (2-{[2-(3-fluorophenyl)ethyl]amino}-6-(2-oxopyrrolidinyl)(3-pyridyl))-N-(3-pyridylmethyl)carboxamide], the negative-log IC50 (pIC50) was 5.34. The figure for `O=C(NCc1cccnc1)c1ccc(N2CCCCC2)nc1NCCc1ccccn1` [Compound 45, {6-piperidyl-2-[(2-(2-pyridyl)ethyl)amino](3-pyridyl)}-N-(3-pyridylmethyl)carboxamide] is 4.88; for `NC(=O)CCNC(=O)c1ccc(N2CC[C@@H](O)C2)nc1NCCc1cccc(F)c1` [Compound 17, (6-((3R)-3-hydroxypyrrolidinyl)-2-{[2-(3-fluorophenyl)ethyl]amino}(3-pyridyl))-N-(2-carbamoylethyl)carboxamide] it is 4.80. Regarding `CNC(=O)CNC(=O)c1ccc(N2CC[C@@H](O)C2)nc1NCCc1cccc(F)c1` [2-[(6-((3R)-3-hydroxypyrrolidinyl)-2-{[2-(3-fluorophenyl)ethyl]amino}(3-pyridyl))carbonylamino]-N-methylacetamide], the pIC50 is 5.46 and 5.43.

Consider `CN1CC=C(c2ccc(C(=O)NCc3cccnc3)c(NCCc3cccc(F)c3)n2)CC1` [Compound 71, (2-{[2-(3-fluorophenyl)ethyl]amino}-6-(1-methyl(4-1,2,5,6-tetrahydropyridyl))(3-pyridyl))-N-(3-pyridylmethyl)carboxamide], for which the negative logarithm of the IC50 (pIC50) is 5.36. To `CC(=O)N1CC=C(c2ccc(C(=O)NCc3cccnc3)c(NCCc3cccc(F)c3)n2)CC1` [Compound 56, (6-(1-acetyl(4-1,2,5,6-tetrahydropyridyl))-2-{[2-(3-fluorophenyl)ethyl]amino}(3-pyridyl))-N-(3-pyridylmethyl)carboxamide] belongs 6.37. Take `CC(C)(C)OC(=O)N1CCN(c2ccc(C(=O)NCc3cccnc3)c(NCCc3cccc(F)c3)n2)C(=O)C1` [Compound 24, tert-butyl 4-(6-{[2-(3-fluorophenyl)ethyl]amino}-5-[N-(3-pyridylmethyl)carbamoyl](2-pyridyl))-3-oxopiperazinecarboxylate]: the negative-log IC50 (pIC50) is 4.22. To `NCc1cccc(CNC(=O)c2ccc(N3CCCC3)nc2NCCc2cccc(F)c2)n1` [Compound 98, N-{[6-(aminomethyl)(2-pyridyl)]methyl}(2-{[2-(3-fluorophenyl)ethyl]amino}-6-pyrrolidinyl(3-pyridyl))carboxamide] belongs 6.67; to `NC(=O)CNC(=O)c1ccc(N2CCCC2)nc1NCCc1cccc(F)c1` [Compound 5, N-(carbamoylmethyl)(2-{[2-(3-fluorophenyl)ethyl]amino}-6-pyrrolidinyl(3-pyridyl))carboxamide], 5.84; to `O=C(NCc1cccnc1)c1ccc(N2CCCCC2=O)nc1NCCc1cccc(F)c1` [Compound 10, (2-{[2-(3-fluorophenyl)ethyl]amino}-6-(2-oxopiperidyl)(3-pyridyl))-N-(3-pyridylmethyl)carboxamide], 5.27. The figure for `CC(=O)N(C)C[C@@H]1CCN(c2ccc(C(=O)NCc3cccnc3)c(NCCc3cccc(F)c3)n2)C1` [Compound 8, N-{[(3R)-1-(6-{[2-(3-fluorophenyl)ethyl]amino}-5-[N-(3-pyridylmethyl)carbamoyl](2-pyridyl))pyrrolidin-3-yl]methyl}-N-methylacetamide] is 4.32; for `O=C(NCc1cccnc1)c1ccc(C2=CCNCC2)nc1NCCc1cccc(F)c1` [Compound 57, (2-{[2-(3-fluorophenyl)ethyl]amino}-6-(4-1,2,5,6-tetrahydropyridyl)(3-pyridyl))-N-(3-pyridylmethyl)carboxamide] it is 4.98. The figure for `CC(=O)NC[C@@H]1CCN(c2ccc(C(=O)NCc3cccnc3)c(NCCc3cccc(F)c3)n2)C1` [Compound 1, N-{[(3S)-1-(6-{[2-(3-fluorophenyl)ethyl]amino}-5-[N-(3-pyridylmethyl)carbamoyl](2-pyridyl))pyrrolidin-3-yl]methyl}acetamide] is 5.42; for `O=C(NCc1cccnc1)c1ccc(N2CC=CCC2)nc1NCCc1cccc(F)c1` [Compound 47, (2-{[2-(3-fluorophenyl)ethyl]amino}-6-(1,2,5,6-tetrahydropyridyl)(3-pyridyl))-N-(3-pyridylmethyl)carboxamide] it is 6.16.

As to `O=C(NCc1cccnc1)c1cc(Br)c(N2CCCC2)nc1NCCc1cccc(F)c1` [Compound 70, (5-bromo-2-{[2-(3-fluorophenyl)ethyl]amino}-6-pyrrolidinyl(3-pyridyl))-N-(3-pyridylmethyl)carboxamide], the pIC50 was 6.53. To `CC(C)(C)OC(=O)NCc1ncccc1CNC(=O)c1cc(F)c(N2CC[C@@H](O)C2)nc1NCCc1cccc(F)c1` [Compound 54, (6-((3R)-3-hydroxypyrrolidinyl)-5-fluoro-2-{[2-(3-fluorophenyl)ethyl]amino}(3-pyridyl))-N-[(2-{[(tert-butoxy)carbonylamino]methyl}(3-pyridyl))methyl]carboxamide] belongs 5.17. The figure for `C[C@H](CNC(=O)c1cc(F)c(N2CCCC2)nc1NCCc1cccc(F)c1)NC(=O)CN` [Compound 82, N-{(1R)-2-[(5-fluoro-2-{[2-(3-fluorophenyl)ethyl]amino}-6-pyrrolidinyl(3-pyridyl))carbonylamino]-isopropyl}-2-aminoacetamide] is 6.70.
